Measurements: patent US20210317092A1 (BAYER PHARMA AKTIENGESELLSCHAFT, priority 2016, published 2021)
Read-outs that look alike come from different tables or passages of the source.

Key:
[1] = target: T1, native human Bradykinin B1 receptor (Homo sapiens, UniProt P46663); assay: Calcium flux Assay (FLIPR) with human fibroblasts expressing Bradykinin B1 receptor (hB1 IMR-90); type: cell-based; details: IMR-90 human fibroblasts expressing native Bradykinin B1 receptor
T1 construct: which express native human Bradykinin B1 receptor after induction with human IL-10; Coriell Institute; host or cells: IMR-90 human foetal lung fibroblasts, cytokine-induced
T1 sequence (P46663 1-353): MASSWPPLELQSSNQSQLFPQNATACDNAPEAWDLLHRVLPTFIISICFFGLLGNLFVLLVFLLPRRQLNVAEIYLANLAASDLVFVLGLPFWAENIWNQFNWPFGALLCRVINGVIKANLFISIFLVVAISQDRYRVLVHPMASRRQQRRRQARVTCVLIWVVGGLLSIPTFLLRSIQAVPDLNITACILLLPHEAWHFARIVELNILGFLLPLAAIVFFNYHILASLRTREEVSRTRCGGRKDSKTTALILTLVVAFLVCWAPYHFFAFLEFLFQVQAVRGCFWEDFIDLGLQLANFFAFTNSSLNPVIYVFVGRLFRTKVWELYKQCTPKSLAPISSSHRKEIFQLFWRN
Procedure: Calcium flux Assay (FLIPR) with human fibroblasts expressing Bradykinin B1 receptor (hB1 IMR-90)
The Calcium flux Assay was carried out utilising IMR-90 human foetal lung fibroblasts (American Type Culture Collection, Rockville, Md.; and Coriell Institute, Camden, N.J.), which express native human Bradykinin B1 receptor after induction with human […].
The fibroblasts were cultured in complete growth media comprised of Dulbecco's modified Eagle's medium (DMEM; Sigma) containing 10% foetal bovine serum, 4 mM L-glutamine, and 1% nonessential amino acids. The cells were maintained in a humidified atmosphere with 5% CO2 at 37° C. and were sub-cultured at a ratio of 1:3, every other day.
For the assay, IMR-90 fibroblasts were harvested using TrypLE Express (GIBCO/Invitrogen) and seeded into 384-well plates (Corning Cellbinding Surface, Cat. 3683) at a density of 15000 cells/well. The following day, cells were treated with 0.35 ng/mL human […] in 10% FBS/MEM for 3h to up-regulate Bradykinin B1 receptor. Induced cells were loaded with fluorescent calcium indicator by incubation with 2.5 μM Fluo-4/AM (Invitrogen) at 37° C., 5% CO2 for 2 h in the presence of 2.5 mM probenecid in 1% FBS/MEM. Extracellular dye was removed by washing with assay buffer (2.5 mM probenecid and 0.1% BSA in 20 mM HEPES/HBSS without bicarbonate or phenol red, pH 7.5). Compound examples were assayed at 8 concentrations in triplicate. After addition of compound examples to the cell plate and incubation for 30 min at 28° C., the addition of Bradykinin B1 agonist Lys-(Des-Arg)-Bradykinin (Bachem, Brackley) at a final concentration of EC90 was carried out on the FLIPR instrument while continuously monitoring Ca^2+-dependent fluorescence at 538 nm. A peptide antagonist Lys-(Des-Arg-Leu)-Bradykinin (Bachem, Brackley) at 20 µM was used to determine the full inhibition as control. IC50 values were determined by the same way described for the FLIPR assay with recombinant cells.

[2] = target: T2, human Bradykinin B1 receptor (Homo sapiens, UniProt P46663); assay: Calcium flux Assay (FLIPR) with recombinant CHO-K1 cells expressing human Bradykinin B1 receptor, in presence (hB1 IC50) or absence (hB1 free IC50) of 0.1% BSA; type: cell-based
T2 construct: host or cells: CHO-K1
T2 sequence (P46663 1-353): T1 sequence (P46663 1-353)

[3] = in absence of 0.1% BSA, read-out: hB1 free IC50
[4] = in presence of 0.1% BSA, read-out: hB1 IC50

Molecule	IC50 [1] [nM]	IC50 [2, 3] [nM]	IC50 [2, 4] [nM]
CCOc1ccc(-c2ccc(NC(=O)C3(c4ccc(Cl)cc4)CC3)cc2-c2nnn[nH]2)cn1 [Example 100, 1-(4-chlorophenyl)-N-[4-(6-ethoxypyridin-3-yl)-3-(1H-tetrazol-5-yl)phenyl] cyclopropane-carboxamide]	8.84	5.56	20.2
CCOc1ccc(-c2ccc(NC(=O)C3(c4ccc(F)cc4F)CC3)cc2-c2nnn[nH]2)cc1OC [Example 122, 1-(2,4-difluorophenyl)-N-[4′-ethoxy-3′-methoxy-2-(1H-tetrazol-5-yl)biphenyl-4-yl]cyclopropane carboxamide]	28.7	–	56.5
COc1cc(C(F)(F)F)ccc1C1(C(=O)Nc2ccc(-c3ccc(C(F)(F)F)nc3)c(-c3nnn[nH]3)c2)CC1 [Example 293, 1-[2-methoxy-4-(trifluoromethyl)phenyl]-N-{3-(1H-tetrazol-5-yl)-4-[6-(trifluoromethyl)pyridin-3-yl]phenyl}cyclopro-panecarboxa-mide]	266	297	–
CCOc1ccc(-c2ccc(NC(=O)C3(c4cc(F)cc(Cl)c4)CC3)cc2-c2nnn[nH]2)cn1 [Example 77, 1-(3-chloro-5-fluorophenyl)-N-[4-(6-ethoxypyridin-3 yl)-3-(1H-tetrazol-5-yl)phenyl] cyclopropane-carboxamide]	21.7	16.1	24
O=C(Nc1ccc(-c2ccc(C(F)(F)F)nc2)c(-c2nnn[nH]2)c1)C1(c2ccc(Cl)cc2F)CC1 [Example 192, 1-(4-chloro-2-fluorophenyl)-N-{3-(1H-tetrazol-5-yl)-4-[6-(trifluoromethyl)pyridin-3-yl]phenyl} cyclopropane-carboxamide]	29.1	33.9	–
Cc1ccc(-c2c(F)cc(NC(=O)C3(c4cccc(Cl)c4)CC3)cc2-c2nnn[nH]2)cn1 [Example 245, 1-(3-chlorophenyl)-N-[3-fluoro-4-(6-methylpyridin-3-yl)-5-(1H-tetrazol-5-yl)phenyl] cyclopropane-carboxamide]	7.85	8.11	–
N-[4-(6- ethoxypyridin-3- yl)-3-(1H- tetrazol-5- yl)phenyl]-1-(4- ethylphenyl) cyclopropane- carboxamide [Example 69]	16.2	6.75	30.9
O=C(Nc1ccc(-c2ccnc(C(F)F)c2)c(-c2nnn[nH]2)c1)C1(c2ccc(C(F)(F)F)cc2F)CC1 [Example 258, N-{4-[2-(difluoromethyl)pyridin-4-yl]-3-(1H-tetrazol-5-yl)phenyl}-1-[2-fluoro-4-(trifluoromethyl)phenyl]cyclopro-panecarboxamide]	47.3	35.2	–
O=C(Nc1cc(F)c(-c2ccc(C(F)(F)F)nc2)c(-c2nnn[nH]2)c1)C1(c2ccc(C(F)(F)F)cc2F)CC1 [Example 242, N-{3-fluoro-5-(1H-tetrazol-5-yl)-4-[6-(trifluoromethyl)pyridin-3-yl]phenyl}-1-[2-fluoro-4-(trifluoromethyl)phenyl] cyclopropane-carboxamide]	22.8	9.76	–
CC(C)(O)c1ccc(-c2ccc(NC(=O)C3(c4cccc(Cl)c4)CC3)cc2-c2nnn[nH]2)cn1 [Example 340, 1-(3-chlorophenyl)-N-{4-[6-(2-hydroxypropan-2-yl)pyridin-3-yl]-3-(1H-tetrazol-5-yl)phenyl}cyclopro-panecarboxa-mide]	108	265	161
CCOc1ccc(-c2ccc(NC(=O)C3(c4ccc(C(F)(F)F)cc4)CC3)cc2-c2nnn[nH]2)cc1OC [Example 121]	19.4	–	28.2
O=C(Nc1ccc(-c2cnc(C(F)(F)F)nc2)c(-c2nnn[nH]2)c1)C1(c2cccc(Cl)c2)CC1 [Example 196, 1-(3-chlorophenyl)-N-{3-(1H-tetrazol-5-yl)-4-[2-(trifluoromethyl)pyrimidin-5-yl]phenyl} cyclopropane-carboxamide]	1450	759	1370
Cn1ncc2ccc(-c3ccc(NC(=O)C4(c5cccc(Cl)c5F)CC4)cc3-c3nnn[nH]3)cc21 [Example 214, 1-(3-chloro-2-fluorophenyl)-N-[4-(1-methyl-1H-indazol-6-yl)-3-(1H-tetrazol-5-yl)phenyl] cyclopropane carboxamide]	26.9	7.93	47.2
CCOc1cncc(-c2ccc(NC(=O)C3(c4ccc(C(F)(F)F)cc4)CC3)cc2-c2nnn[nH]2)c1 [Example 156, N-[4-(5-ethoxypyridin-3-yl)-3-(1H-tetrazol-5-yl)phenyl]-1-[4-(trifluoromethyl)phenyl] cyclopropane-carboxamide]	84.6	36.6	27.5
O=C(Nc1cc(-c2nnn[nH]2)c(-c2ccc(C(F)(F)F)nc2)cc1O)C1(c2ccc(Cl)c(F)c2)CC1 [Example 224, 1-(4-chloro-3-fluorophenyl)-N-{2-hydroxy-5-(1H-tetrazol-5-yl)-4-[6-(trifluoromethyl)pyridin-3-yl]phenyl} cyclopropane-carboxamide]	108	–	49.6
O=C(Nc1cc(-c2nnn[nH]2)c(-c2ccc(C(F)(F)F)nc2)cc1O)C1(c2cc(Cl)ccc2F)CC1 [Example 222]	55.6	–	75.7
CC(F)(F)c1ccc(-c2ccc(NC(=O)C3(c4ccc(C(F)(F)F)cc4F)CC3)cc2-c2nnn[nH]2)cn1 [Example 281, N-{4-[6-(1,1-difluoroethyl)py-ridin-3-yl]-3-(1H-tetrazol-5-yl)phenyl}-1-[2-fluoro-4-(trifluoromethyl)phenyl]cyclopro-panecarboxamide]	6.17	6	–
Cc1ccc(C2(C(=O)Nc3ccc(-c4ccc(C(F)(F)F)nc4)c(-c4nnn[nH]4)c3)CC2)c(F)c1 [Example 291, 1-(2-fluoro-4-methylphenyl)-N-{3-(1H-tetrazol-5-yl)-4-[6-(trifluoromethyl)pyridin-3-yl]phenyl}cyclopro-panecarboxa-mide]	2.36	22.5	–
CCOc1ccc(-c2ccc(NC(=O)C3(c4ccc(F)c(F)c4)CC3)cc2-c2nnn[nH]2)cn1 [Example 82, 1-(3,4-difluorophenyl)-N-[4-(6-ethoxypyridin-3-yl)-3-(1H-tetrazol-5-yl)phenyl] cyclopropane-carboxamide]	14.9	29.1	33.3
O=C(Nc1ccc(-c2ccnc(C(F)(F)F)c2)c(-c2nnn[nH]2)c1)C1(c2ccc(Cl)cc2F)CC1 [Example 175, 1-(4-chloro-2-fluorophenyl)-N-{3-(1H-tetrazol-5-yl)-4-[2-(trifluoromethyl)pyridin-4-yl]phenyl} cyclopropane-carboxamide]	687	216	–
O=C(Nc1ccc(-c2ccc(C(F)(F)F)nc2)c(-c2nnn[nH]2)c1)C1(c2ccc(Cl)cc2)CC1 [Example 203, 1-(4-chlorophenyl)-N-{3-(1H-tetrazol-5-yl)-4-[6-(trifluoromethyl)pyridin-3-yl]phenyl} cyclopropane-carboxamide]	36.7	92.2	–
COc1cncc(-c2ccc(NC(=O)C3(c4cccc(Cl)c4)CC3)cc2-c2nnn[nH]2)c1 [Example 153, 1-(3-chlorophenyl)-N-[4-(5-methoxypyridin-3-yl)-3-(1H-tetrazol-5-yl)phenyl] cyclopropane-carboxamide]	18.6	3.64	26.2
